According to BindingDB's records for doi:10.7270/Q2B56H72 (Nmmlsc, 2011):

Molecular target: T1, Beta-adrenergic receptor kinase 1 (Homo sapiens, UniProt P25098)
T1 sequence (P25098 whole entry): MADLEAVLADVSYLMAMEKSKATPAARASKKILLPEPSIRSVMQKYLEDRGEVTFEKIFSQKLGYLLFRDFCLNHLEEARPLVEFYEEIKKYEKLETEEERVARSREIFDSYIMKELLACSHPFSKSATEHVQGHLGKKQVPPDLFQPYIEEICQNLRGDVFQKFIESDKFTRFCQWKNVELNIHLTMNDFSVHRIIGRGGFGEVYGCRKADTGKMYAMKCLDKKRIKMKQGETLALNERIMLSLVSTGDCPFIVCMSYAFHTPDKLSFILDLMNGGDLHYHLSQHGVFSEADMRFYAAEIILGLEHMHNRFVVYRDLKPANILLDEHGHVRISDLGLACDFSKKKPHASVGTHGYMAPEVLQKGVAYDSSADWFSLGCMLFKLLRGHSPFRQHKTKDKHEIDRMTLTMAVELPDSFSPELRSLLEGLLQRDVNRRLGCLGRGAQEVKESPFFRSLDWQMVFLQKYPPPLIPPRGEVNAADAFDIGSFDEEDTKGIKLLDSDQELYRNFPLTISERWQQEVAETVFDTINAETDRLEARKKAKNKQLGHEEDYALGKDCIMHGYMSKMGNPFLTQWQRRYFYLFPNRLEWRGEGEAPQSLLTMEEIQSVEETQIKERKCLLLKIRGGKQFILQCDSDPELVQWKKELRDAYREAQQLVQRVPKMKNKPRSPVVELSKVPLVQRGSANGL
Test: aptamer displacement from bead-bound GRK2 – biochemical, cherry pick 1, bead flow cytometry, dose response (AID 504500)

EC50: 14.8 µM
SMILES: C=c1[nH]n(-c2cccc(C(=O)O)c2)c(=O)c1=CC=Cc1ccco1 [SMR000113614]
